Test results taken from patent publication US10632181B2, “Composition, containing RGD motif-containing peptide or fragment thereof, for treating burns and glaucoma, alleviating skin wrinkles, and promoting hair growth” (HUONS CO., LTD., priority 2014, dated 2020).
Positions of bridges follow the written chain, without caps; N, C: chain ends. No end group written: not given here.

How the values were obtained:
Format in all cases: in vivo, Women aged 30-65
wrinkles around eyes [1] = assay: Wrinkle extent around eyes by 3D imaging (PRIMOS Premium); details: for Rmax numerical value (maximum height of wrinkle profile) / Rp numerical value (maximum profile peak height) / Rv numerical value (maximum profile valley depth): in µm (unit assumed)
Protocol: Furthermore, the wrinkle extent was measured by 3D imaging. A target site to measure the wrinkle extent was regions around the eyes of the subjects, and the right side of the face was set as a measurement site. To measure the wrinkle extent, the subjects were allowed to wash the measurement site with water, and take a rest for 30 minutes in the waiting room under constant temperature constant humidity conditions of indoor temperature 20-25° C. and humidity 40-60% to acclimate the skin surface temperature and humidity to the environment of the measurement space, and were not permitted to drink water during the rest. For objective measurement, measurements were performed by one researcher, and the same site was measured at each time of the first visit before use and the second and third visits in 2 and 4 weeks after use. Before use and in 2 and 4 weeks after use, images of the site to which the test product (HU022 (SEQ ID NO:1)) was applied were formed using 3D skin imaging machine (PRIMOS Premium), and to verify if there is any difference in each of control group and experimental group in 4 weeks after use, wrinkle parameters, Ra, Rmax, Rt, Rp, Rv values, in the stored images of 2 weeks and 4 weeks after use relative to before use were analyzed.

wrinkles around eyes [2] = assay: Wrinkle extent around eyes, skin replica, Visiometer SV600; set-up: R3 numerical value (average roughness) / R1 numerical value (skin roughness) / R4 numerical value (smoothness depth) / R5 numerical value (arithmetic average roughness): unit not given here
Protocol: The extent of wrinkles around eyes was measured using equipment. A target site to measure the wrinkle extent was regions around the eyes of the subjects, and the left side and the right side of the face were set as a measurement site. To measure the wrinkle extent, the subjects were allowed to wash the measurement site with water, and take a rest for 30 minutes in the waiting room under constant temperature and constant humidity conditions of indoor temperature 20-25° C. and humidity 40-60% to acclimate the skin surface temperature and humidity to the environment of the measurement space, and were not permitted to drink water during the rest. For objective measurement, measurements were performed by one researcher, and the same site was measured at each time of the first visit before use and the second and third visits in 2 and 4 weeks after use. Transparency profilometry analysis was performed using Visiometer SV600 (Courage-Khazaka electronic GmbH, Germany) on skin replica of the site to which test product and control product were applied before use and 2 and 4 weeks after use, and to identify if there is any difference in each of control group and experimental group after use, a change (%) in R1, R2, R4, R5 measurement values in 2 and 4 weeks after use relative to before use was analyzed.

wrinkles around eyes [3] = assay: Survey of subjects about wrinkle reduction effectiveness
Protocol: Furthermore, surveying the subjects about effectiveness was conducted. The subjects were asked to personally make responses about the extent to which the subjects felt that wrinkles reduced after use of test product using 5 levels: better (4), a little bit better (3), no change (2), a little bit worse (1), worse (0). The researcher determined if test product has efficacy by calculating the percentage of the number of subjects for each response.

wrinkles around eyes [4] = assay: Wrinkle extent around eyes, skin replica, Visiometer SV600; set-up: R3 numerical value (average roughness): unit not given here
wrinkles around eyes [5] = assay: Expert visual assessment of wrinkles (global photodamage score); details: for expert visual assessment score: severity 0-7
Protocol: Furthermore, visual assessment was performed. At each visit before and after use, experts assessed the wrinkle extent by scoring using global photodamage score (Br J Dermatol. 2010; 162(3):497-502). To verify if there is any difference in each of control group and experimental group in 4 weeks after use, a change (%) in visual assessment scores of 2 weeks and 4 weeks after use relative to before use was analyzed. The visual assessment scores are as follows (Table 18): […]

[6] = response 2 (fair), 4 weeks after use
[7] = response 3 (good), 4 weeks after use
[8] = response 4 (very good), 4 weeks after use

With “HU024 (RPTRGDCDLPEFCPG; disulfide 7-13; listed as Homo sapiens)” the “Ra numerical value (roughness average of wrinkle profile)” value (“Ra numerical value” below) (wrinkles around eyes [1]; 2 weeks after use, twice daily) was 18.33 ± 2.12, the “Rt numerical value (distance between highest peak and lowest valley)” value (“Rt numerical value” below) (wrinkles around eyes [1]; 2 weeks after use, twice daily) was 216.37 ± 41.76 and the “Rmax numerical value (maximum height of wrinkle profile)” value (from here on “Rmax numerical value”) (wrinkles around eyes [1]; 2 weeks after use, twice daily) was 198.77 ± 39.74. For the same substance, the “Rp numerical value (maximum profile peak height)” value (“Rp numerical value” for short) (wrinkles around eyes [1]; 2 weeks after use, twice daily) was 155.24 ± 43.18, the “Rv numerical value (maximum profile valley depth)” value (shortened to “Rv numerical value”) (wrinkles around eyes [1]; 2 weeks after use, twice daily) was 61.12 ± 8.02 and the “Ra numerical value” value (wrinkles around eyes [1]; 4 weeks after use, twice daily) was 17.71 ± 2.43. For the same substance, the “Rt numerical value” value (wrinkles around eyes [1]; 4 weeks after use, twice daily) was 210.60 ± 38.61, the “Rmax numerical value” value (wrinkles around eyes [1]; 4 weeks after use, twice daily) was 196.85 ± 39.02 and the “Rp numerical value” value (wrinkles around eyes [1]; 4 weeks after use, twice daily) was 153.78 ± 36.12. For the same substance, the “Rv numerical value” value (wrinkles around eyes [1]; 4 weeks after use, twice daily) was 56.82 ± 12.01, the “Ra numerical value” value (wrinkles around eyes [1]; Before use) was 18.64 ± 3.19 and the “Rt numerical value” value (wrinkles around eyes [1]; Before use) was 225.94 ± 45.00. The “Change(%) in Ra” value (wrinkles around eyes [1]; Before use-2 weeks after use) was −0.75%, the “Change(%) in Rmax” value (wrinkles around eyes [1]; Before use-2 weeks after use) was −3.77% and the “Change(%) in Rp” value (wrinkles around eyes [1]; Before use-2 weeks after use) was −3.48%. For the same substance, the “Change(%) in Rt” value (wrinkles around eyes [1]; Before use-2 weeks after use) was −4.24%, the “Change(%) in Rv” value (wrinkles around eyes [1]; Before use-2 weeks after use) was −6.10% and the “Change(%) in Ra” value (wrinkles around eyes [1]; Before use-4 weeks after use) was −4.10%. For the same substance, the “Change(%) in Rmax” value (wrinkles around eyes [1]; Before use-4 weeks after use) was −4.69%, the “Change(%) in Rp” value (wrinkles around eyes [1]; Before use-4 weeks after use) was −4.40% and the “Change(%) in Rt” value (wrinkles around eyes [1]; Before use-4 weeks after use) was −6.79%. The “Change(%) in Rv” value (wrinkles around eyes [1]; Before use-4 weeks after use) was −12.71%, the “Rmax numerical value” value (wrinkles around eyes [1]; Before use) was 206.55 ± 40.54 and the “Rp numerical value” value (wrinkles around eyes [1]; Before use) was 160.85 ± 37.51. The “Rv numerical value” value (wrinkles around eyes [1]; Before use) was 65.09 ± 11.95, the “R1 numerical value (skin roughness)” value (wrinkles around eyes [2]; 2 weeks after use, twice daily) was 57.29 ± 3.21 and the “R2 numerical value (maximum roughness)” value (wrinkles around eyes [2]; 2 weeks after use, twice daily) was 30.71 ± 6.57. For the same substance, the “R3 numerical value (average roughness)” value (wrinkles around eyes [2]; 2 weeks after use, twice daily) was 20.80 ± 3.97, the “R4 numerical value (smoothness depth)” value (wrinkles around eyes [2]; 2 weeks after use, twice daily) was 26.24 ± 2.90 and the “R5 numerical value (arithmetic average roughness)” value (from here on “R5 numerical value”) (wrinkles around eyes [2]; 2 weeks after use, twice daily) was 11.58 ± 0.89. For the same substance, the “R1 numerical value (skin roughness)” value (wrinkles around eyes [2]; 4 weeks after use, twice daily) was 45.23 ± 13.77, the “R2 numerical value (maximum roughness)” value (wrinkles around eyes [2]; 4 weeks after use, twice daily) was 28.67 ± 7.47 and the “R3 numerical value (average roughness)” value (wrinkles around eyes [2]; 4 weeks after use, twice daily) was 17.81 ± 4.00. The “R4 numerical value (smoothness depth)” value (wrinkles around eyes [2]; 4 weeks after use, twice daily) was 20.64 ± 6.07, the “R5 numerical value” value (wrinkles around eyes [2]; 4 weeks after use, twice daily) was 8.42 ± 3.48 and the “R1 numerical value (skin roughness)” value (wrinkles around eyes [2]; Before use) was 71.33 ± 15.86. The “R2 numerical value (maximum roughness)” value (wrinkles around eyes [2]; Before use) was 46.06 ± 11.62, the “R4 numerical value (smoothness depth)” value (wrinkles around eyes [2]; Before use) was 31.44 ± 11.04 and the “R5 numerical value” value (wrinkles around eyes [2]; Before use) was 13.52 ± 5.43. For the same substance, the “Change(%) in R1” value (wrinkles around eyes [2]; Before use-2 weeks after use) was −19.68%, the “Change(%) in R4” value (wrinkles around eyes [2]; Before use-2 weeks after use) was −16.54% and the “Change(%) in R5” value (wrinkles around eyes [2]; Before use-2 weeks after use) was −14.36%. The “Change(%) in R1” value (wrinkles around eyes [2]; Before use-4 weeks after use) was −36.59%, the “Change(%) in R3” value (wrinkles around eyes [2]; Before use-4 weeks after use) was −54.55% and the “Change(%) in R4” value (wrinkles around eyes [2]; Before use-4 weeks after use) was −34.36%. The “Change(%) in R5” value (wrinkles around eyes [2]; Before use-4 weeks after use) was −37.71%, the “Number of subjects, wrinkle reduction survey” value (wrinkles around eyes [3]; response 0 (very bad), 4 weeks after use) was 0 and the “Number of subjects, wrinkle reduction survey” value (wrinkles around eyes [3]; response 1 (bad), 4 weeks after use) was 0. The “Number of subjects, wrinkle reduction survey” value (wrinkles around eyes [3]; [6]) was 1, the “Percentage of subjects, wrinkle reduction survey” value (wrinkles around eyes [3]; [6]) was “(16.7) %” and the “Number of subjects, wrinkle reduction survey” value (wrinkles around eyes [3]; [7]) was 4. The “Percentage of subjects, wrinkle reduction survey” value (wrinkles around eyes [3]; [7]) was “(66.7) %”, the “Number of subjects, wrinkle reduction survey” value (wrinkles around eyes [3]; [8]) was 1 and the “Percentage of subjects, wrinkle reduction survey” value (wrinkles around eyes [3]; [8]) was “(16.7) %”. The “Mean of wrinkle reduction survey response” value (wrinkles around eyes [3]; scale 0-4, 4 weeks after use) was 3.00, the “survey assessment about wrinkle reduction, test product versus control product” value (wrinkles around eyes [3]; third visit, 4 weeks after use) was “test product was better at reducing wrinkles than control product” and the “R3 numerical value (average roughness)” value (wrinkles around eyes [4]; Before use) was 29.15 ± 5.56. The “Change(%) in R3” value (wrinkles around eyes [4]; Before use-2 weeks after use) was −28.66%, the “expert visual assessment score” value (wrinkles around eyes [5]; 2 weeks after use) was 2.00 ± 0.63 and the “expert visual assessment score” value (wrinkles around eyes [5]; 4 weeks after use) was 1.67 ± 0.82. For the same substance, the “expert visual assessment score” value (wrinkles around eyes [5]; Before use) was 2.00 ± 0.63, the “Change(%) in expert visual assessment score” value (wrinkles around eyes [5]; Before use-2 weeks after use) was 0% and the “Change(%) in expert visual assessment score” value (wrinkles around eyes [5]; Before use-4 weeks after use) was −16.67%.
